# Source: ChEMBL document CHEMBL3085750, “Discovery of 2-methylpyridine-based biaryl amides as γ-secretase modulators for the treatment of Alzheimer's disease” (Bioorg Med Chem Lett, 2013)
# pIC50: −log10 of the molar value. Calls of active or inactive are those of the source. The calls are words filed in the database; no cut-off is given here.
# What was measured:
# [1] = biological target: T1, Gamma-secretase (Homo sapiens) (UniProt Q96BI3+Q9NZ42+Q8WW43+P49768+Q92542+P49810); assay: Modulation of gamma-secretase in HEK293 cells expressing guinea pig Swedish mutant SFV-APP695sw assessed as inhibition of amyloid beta-42 production at 10 uM after 16 to 18 hrs by HTRF assay relative to control; assay type: cell-based
# Cytochrome P450 2D6 = Cytochrome P450 2D6 (Homo sapiens, UniProt P10635); assay: Inhibition of CYP2D6 (unknown origin) after 10 mins; assay type: ADME
# Cytochrome P450 3A4 = Cytochrome P450 3A4 (Homo sapiens, UniProt P08684); assay: Inhibition of CYP3A4 (unknown origin) after 5 mins; assay type: ADME
# [2] = Metabolic stability in rat liver microsomes at 1 uM after 30 mins; assay type: ADME; conditions: read-out: Stability
# [3] = Metabolic stability in human liver microsomes at 1 uM after 30 mins; assay type: ADME; conditions: read-out: Stability
# Gamma-secretase [4] = assay: Modulation of gamma-secretase in HEK293 cells expressing guinea pig Swedish mutant SFV-APP695sw assessed as inhibition of amyloid beta-42 production after 16 to 18 hrs by HTRF assay; assay type: cell-based, Homo sapiens
# [5] = Ratio of drug level in brain to plasma in mouse at 10 mg/kg, po after 2 hrs; assay type: ADME, organism-based; design: dose 10 mg/kg, route oral; conditions: read-out: BPR
# Plasma [6] = assay: Unbound plasma concentration in Sprague-Dawley rat; assay type: ADME, cell-free
# [7] = Drug level in Sprague-Dawley rat CSF; assay type: ADME, Cerebrospinal fluid; conditions: in vivo, read-out: Ct
# [8] = Apparent permeability in pig LLC-PK1 cells; assay type: ADME, cell-based, Sus scrofa
# Rattus norvegicus [9] = assay: Reduction of amyloid beta-42 level in Sprague-Dawley rat CSF at 100 mg/kg, po after 4 hrs by immunoassay relative to control; assay type: functional; design: scale not given: the % may be the effect or the level left
# Rattus norvegicus [10] = assay: Toxicity in Sprague-Dawley rat assessed as increased goblet cell numbers in duodenum at 1 to 3 mg/kg after 4 days by light microscopic analysis; assay type: organism-based; design: dose 1-3 mg/kg; conditions: in vivo, other, 96 h
# [11] = AUC (0 to 24 hrs) in Sprague-Dawley rat at 3 mg/kg at day 4; assay type: ADME, organism-based; design: time < 24 hr, dose 3 mg/kg; conditions: plasma
# Rattus norvegicus [12] = assay: Toxicity in Sprague-Dawley rat assessed as thymic cortical lymphoid depletion at 1 to 3 mg/kg after 4 days by light microscopic analysis; assay type: organism-based; design: dose 1-3 mg/kg; conditions: in vivo, 96 h
# Plasma [13] = assay: Unbound plasma concentration in Sprague-Dawley rat at 1 mg/kg; assay type: ADME, organism-based; design: dose 1 mg/kg; conditions: in vivo
# Rattus norvegicus [14] = assay: Toxicity in Sprague-Dawley rat assessed as marginal zone lymphoid depletion in spleen at 1 to 3 mg/kg after 4 days by light microscopic analysis; assay type: organism-based; design: dose 1-3 mg/kg; conditions: in vivo, 96 h
# Rattus norvegicus [15] = assay: Toxicity in Sprague-Dawley rat assessed as thickening of hypertrophic zone of tibial physis at 1 to 3 mg/kg after 4 days by light microscopic analysis; assay type: organism-based; design: dose 1-3 mg/kg; conditions: in vivo, 96 h
# Rattus norvegicus [16] = assay: Toxicity in Sprague-Dawley rat assessed as presence of mixed inflammatory infiltrate with mild villus blunting and fusion in duodenum at 1 to 3 mg/kg after 4 days by light microscopic analysis; assay type: organism-based; design: dose 1-3 mg/kg; conditions: in vivo, other, 96 h
# [17] = AUC (0 to 24 hrs) in Sprague-Dawley rat at 3 mg/kg at day 1; assay type: ADME, organism-based; design: time < 24 hr, dose 3 mg/kg; conditions: plasma
# Rattus norvegicus [18] = assay: Reduction of amyloid beta-42 level in Sprague-Dawley rat CSF at 3 mg/kg after 24 hrs by immunoassay relative to control; assay type: functional; design: scale not given: the % may be the effect or the level left
# [19] = Plasma protein binding in Sprague-Dawley rat; assay type: ADME, cell-free; conditions: read-out: PPB (converted)
# Rattus norvegicus [20] = assay: Toxicity in Sprague-Dawley rat assessed as increase in neutrophils and monocytes in peripheral blood at 1 to 3 mg/kg after 4 days by light microscopic analysis; assay type: organism-based; design: dose 1-3 mg/kg; conditions: in vivo, 96 h
# Rattus norvegicus [21] = assay: Toxicity in Sprague-Dawley rat assessed as increased goblet cell numbers in colon at 1 to 3 mg/kg after 4 days by light microscopic analysis; assay type: organism-based; design: dose 1-3 mg/kg; conditions: in vivo, 96 h
# Rattus norvegicus [22] = assay: Reduction of amyloid beta-42 level in Sprague-Dawley rat CSF at 3 mg/kg after 4 hrs by immunoassay relative to control; assay type: functional; design: scale not given: the % may be the effect or the level left
# Rattus norvegicus [23] = assay: Reduction of amyloid beta-42 level in Sprague-Dawley rat CSF at 1 mg/kg after 4 hrs by immunoassay relative to control; assay type: functional; design: scale not given: the % may be the effect or the level left
# [24] = Ratio of drug level in brain to plasma in Sprague-Dawley rat; assay type: ADME, cell-free; conditions: read-out: BPR
# Gamma-secretase [25] = assay: Modulation of gamma-secretase in HEK293 cells expressing guinea pig Swedish mutant SFV-APP695sw assessed as inhibition of amyloid beta-40 production after 16 to 18 hrs by HTRF assay; assay type: cell-based, Homo sapiens
# Rattus norvegicus [26] = assay: Toxicity in Sprague-Dawley rat assessed as histopathological changes at 30 to 300 mg/kg, po after 4 days by light microscopic analysis; assay type: organism-based; design: dose 30-300 mg/kg, route oral; conditions: in vivo, 96 h
# Rattus norvegicus [27] = assay: Reduction of amyloid beta-42 level in Sprague-Dawley rat CSF at 30 mg/kg, po after 24 hrs by immunoassay relative to control; assay type: functional; design: scale not given: the % may be the effect or the level left
# Rattus norvegicus [28] = assay: Reduction of amyloid beta-42 level in Sprague-Dawley rat CSF at 100 mg/kg, po after 24 hrs by immunoassay relative to control; assay type: functional; design: scale not given: the % may be the effect or the level left
# Rattus norvegicus [29] = assay: Reduction of amyloid beta-42 level in Sprague-Dawley rat CSF at 300 mg/kg, po after 24 hrs by immunoassay relative to control; assay type: functional; design: scale not given: the % may be the effect or the level left
# Plasma [30] = assay: Drug uptake in Sprague-Dawley rat plasma at 100 mg/kg, po after 4 to 36 hrs by LC/MS analysis; assay type: ADME, organism-based; design: dose 100 mg/kg, route oral; conditions: in vivo
# [31] = Ratio of unbound plasma concentration in Sprague-Dawley rat to gamma-secretase-mediated amyloid beta-42 production in HEK293 cells; assay type: ADME, cell-based
# Rattus norvegicus [32] = assay: Reduction of amyloid beta-42 level in Sprague-Dawley rat brain at 100 mg/kg, po after 4 hrs by immunoassay relative to control; assay type: functional; design: scale not given: the % may be the effect or the level left
# Rattus norvegicus [33] = assay: Reduction of amyloid beta-40 level in Sprague-Dawley rat CSF at 100 mg/kg, po after 4 hrs by immunoassay; assay type: functional, organism-based; design: dose 100 mg/kg
# [34] = Efflux ratio of apparent permeability in pig LLC-PK1 cells; assay type: ADME, cell-based, Sus scrofa
# [35] = Half life in cynomolgus monkey at 2 mg/kg, iv; assay type: ADME, organism-based, Macaca fascicularis; design: dose 2 mg/kg, route intravenous; conditions: in vivo
# [36] = Half life in rat at 2 mg/kg, iv; assay type: ADME, organism-based; design: dose 2 mg/kg, route intravenous; conditions: in vivo
# Rattus norvegicus [37] = assay: Reduction of amyloid beta-40 level in Sprague-Dawley rat brain at 100 mg/kg, po after 4 hrs by immunoassay; assay type: functional, organism-based; design: dose 100 mg/kg
# [38] = Clearance in rat at 2 mg/kg, iv; assay type: ADME, organism-based; design: dose 2 mg/kg, route intravenous; conditions: in vivo
# Plasma [39] = assay: Unbound plasma concentration in Sprague-Dawley rat at 300 mg/kg; assay type: ADME, organism-based; design: dose 300 mg/kg; conditions: in vivo
# Rattus norvegicus [40] = assay: Reduction of amyloid beta level in Sprague-Dawley rat CSF at 100 mg/kg, po after 36 hrs by immunoassay; assay type: functional, organism-based; design: dose 100 mg/kg
# Gamma-secretase [41] = assay: Modulation of gamma-secretase in HEK293 cells expressing guinea pig Swedish mutant SFV-APP695sw coexpressing DLL4 assessed as inhibition of notch processing in human TE671 cells after 3 days by dual-cell luciferase reporter gene assay; assay type: cell-based
# [42] = biological target: T1, Gamma-secretase (Homo sapiens); assay: Selectivity ratio of IC50 for gamma-secretase-mediated notch processing in HEK293 cells by dual-cell luciferase reporter gene assay to IC50 for gamma-secretase-mediated amyloid beta-42 production in HEK293 cells by HTRF assay; assay type: cell-based
# Rattus norvegicus [43] = assay: Toxicity in Sprague-Dawley rat assessed as notch-associated effects at 30 to 300 mg/kg, po after 4 days by light microscopic analysis; assay type: organism-based; design: dose 30-300 mg/kg, route oral; conditions: in vivo, 96 h
# [44] = Clearance in cynomolgus monkey at 2 mg/kg, iv; assay type: ADME, organism-based, Macaca fascicularis; design: dose 2 mg/kg, route intravenous; conditions: in vivo
# [45] = Oral bioavailability in rat at 5 mg/kg; assay type: ADME, organism-based; conditions: in vivo
# [46] = Oral bioavailability in cynomolgus monkey at 5 mg/kg; assay type: ADME, organism-based, Macaca fascicularis; conditions: in vivo
# [47] = Volume of distribution at steady state in rat at 2 mg/kg, iv; assay type: ADME, organism-based; design: dose 2 mg/kg, route intravenous; conditions: in vivo, read-out: Vdss
# [48] = Volume of distribution at steady state in cynomolgus monkey at 2 mg/kg, iv; assay type: ADME, organism-based, Macaca fascicularis; design: dose 2 mg/kg, route intravenous; conditions: in vivo, read-out: Vdss
# Brain = assay: Drug uptake in Sprague-Dawley rat brain at 100 mg/kg, po after 4 to 36 hrs by LC/MS analysis; assay type: ADME, organism-based; design: dose 100 mg/kg, route oral; conditions: in vivo
# Sequence of Cytochrome P450 2D6 (P10635 whole entry): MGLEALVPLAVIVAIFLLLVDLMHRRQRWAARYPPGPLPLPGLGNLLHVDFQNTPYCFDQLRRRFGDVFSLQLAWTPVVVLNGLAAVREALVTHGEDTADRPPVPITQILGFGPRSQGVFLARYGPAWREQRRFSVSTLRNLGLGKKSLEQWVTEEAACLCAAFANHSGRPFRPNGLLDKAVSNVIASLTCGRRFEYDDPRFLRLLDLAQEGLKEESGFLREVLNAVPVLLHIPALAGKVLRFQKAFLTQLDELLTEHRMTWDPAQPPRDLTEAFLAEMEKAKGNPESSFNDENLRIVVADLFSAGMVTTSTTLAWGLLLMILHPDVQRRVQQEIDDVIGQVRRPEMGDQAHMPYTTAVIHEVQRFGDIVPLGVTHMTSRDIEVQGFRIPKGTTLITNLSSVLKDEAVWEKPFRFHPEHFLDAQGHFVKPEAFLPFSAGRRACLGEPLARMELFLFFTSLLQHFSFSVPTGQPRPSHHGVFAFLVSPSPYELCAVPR
# Sequence of Cytochrome P450 3A4 (P08684 whole entry): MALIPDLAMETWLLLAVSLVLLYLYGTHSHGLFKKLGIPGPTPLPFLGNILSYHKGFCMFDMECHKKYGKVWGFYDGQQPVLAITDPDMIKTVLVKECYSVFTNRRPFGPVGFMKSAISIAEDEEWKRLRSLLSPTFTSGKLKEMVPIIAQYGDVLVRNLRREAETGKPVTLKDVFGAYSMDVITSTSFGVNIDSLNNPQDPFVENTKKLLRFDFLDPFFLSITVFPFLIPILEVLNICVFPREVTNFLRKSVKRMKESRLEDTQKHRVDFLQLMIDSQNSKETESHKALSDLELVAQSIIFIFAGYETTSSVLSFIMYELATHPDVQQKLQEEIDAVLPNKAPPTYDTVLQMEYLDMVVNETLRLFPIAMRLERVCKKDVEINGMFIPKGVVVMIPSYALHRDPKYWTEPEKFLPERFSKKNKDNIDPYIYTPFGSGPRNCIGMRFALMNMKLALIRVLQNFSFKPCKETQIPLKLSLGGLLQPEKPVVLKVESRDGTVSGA
compound,measurement,setting,value
Cc1cc(-c2ccc(NC(=O)c3cc(C(F)(F)F)cc(C(F)(F)F)c3)cc2)ccn1,inhibition,[1],58%
same,pIC50,Cytochrome P450 2D6,< 4.57
same,pIC50,Cytochrome P450 3A4,< 4.57
same,microsomal CLint at 1 µM,[2],14 µL/min/mg
same,microsomal CLint at 1 µM,[3],106 µL/min/mg
same,pIC50,Gamma-secretase [4],< 5.00
Cc1cc(-c2ccc(NC(=O)c3cc(Cl)cc(Cl)c3)cc2)ccn1,inhibition,[1],53%
same,pIC50,Cytochrome P450 2D6,< 4.57
same,Kp at 2 h,[5],1.46
same,pIC50,Cytochrome P450 3A4,< 4.57
same,microsomal CLint at 1 µM,[2],19 µL/min/mg
same,microsomal CLint at 1 µM,[3],91 µL/min/mg
same,pIC50,Gamma-secretase [4],< 5.00
Cc1cc(-c2ccc(NC(=O)[C@H](CC(C)C)c3cccc(-c4ccc(N5CCOCC5)cc4)c3)cc2)ccn1,Cp(f),Plasma [6],290 nM
same,concentration,[7],2 nM
same,Papp,[8],< 1 ×10⁻⁶ cm/s
same,Activity,Rattus norvegicus [9],27%
same,pIC50,Gamma-secretase [4],7.70
C[C@H](NC(=O)[C@@H](O)c1cc(F)cc(F)c1)C(=O)N[C@@H]1C(=O)N(C)c2ccccc2-c2ccccc21,Activity,Rattus norvegicus [10],Toxic
same,AUC(0-t) at 24 h,[11],144 ng·h/mL
same,Activity,Rattus norvegicus [12],Toxic
same,Cp(f),Plasma [13],0.4 nM
same,Activity,Rattus norvegicus [14],Toxic
same,Activity,Rattus norvegicus [15],Toxic
same,Cp(f),Plasma [6],1.2 nM
same,Activity,Rattus norvegicus [16],Toxic
same,AUC(0-t) at 24 h,[17],386 ng·h/mL
same,Activity,Rattus norvegicus [18],37%
same,fraction unbound,[19],0.053
same,Activity,Rattus norvegicus [20],Toxic
same,Activity,Rattus norvegicus [21],Toxic
same,Activity,Rattus norvegicus [22],66%
same,Activity,Rattus norvegicus [23],33%
Cc1cc(-c2ccc(NC(=O)[C@@H](C)c3cc(C(F)(F)F)cc(C(F)(F)F)c3)cc2)ccn1,pIC50,Cytochrome P450 2D6,5.59
same,Kp,[24],2
same,pIC50,Cytochrome P450 3A4,< 4.57
same,microsomal CLint at 1 µM,[2],< 14 µL/min/mg
same,microsomal CLint at 1 µM,[3],< 14 µL/min/mg
same,Activity,Rattus norvegicus [9],inactive
same,pIC50,Gamma-secretase [4],< 5.00
CCN(CC)c1ccc(C)c(Nc2nc(-c3ccc(-n4cnc(C)c4)cc3)cs2)c1,pIC50,Gamma-secretase [4],6.89
same,pIC50,Gamma-secretase [25],6.25
Cc1cc(-c2ccc(NC(=O)[C@H](C)c3cc(C(F)(F)F)cc(C(F)(F)F)c3)cc2)ccn1,Activity,Rattus norvegicus [26],Non-toxic
same,Activity,Rattus norvegicus [27],32%
same,Activity,Rattus norvegicus [28],44%
same,Activity,Rattus norvegicus [29],55%
same,Drug uptake,Plasma [30],Active
same,Ratio,[31],2
same,Activity,Rattus norvegicus [32],33%
same,pIC50,Cytochrome P450 2D6,5.39
same,Activity,Rattus norvegicus [33],inactive
same,efflux ratio,[34],1.2
same,half-life,[35],15.9 h
same,half-life,[36],6 h
same,Kp,[24],2
same,pIC50,Cytochrome P450 3A4,< 4.57
same,Activity,Rattus norvegicus [37],inactive
same,clearance,[38],9.67 mL/min/kg
same,microsomal CLint at 1 µM,[2],< 14 µL/min/mg
same,Cp(f),Plasma [39],0.57 nM
same,Activity,Rattus norvegicus [40],Active
same,pIC50,Gamma-secretase [41],4.93
same,Ratio IC50,[42],45
same,Papp,[8],7.8 ×10⁻⁶ cm/s
same,microsomal CLint at 1 µM,[3],< 14 µL/min/mg
same,Activity,Rattus norvegicus [9],41%
same,Activity,Rattus norvegicus [43],Non-toxic
same,clearance,[44],2.67 mL/min/kg
same,bioavailability,[45],100%
same,bioavailability,[46],56%
same,Vd,[47],4.3 L/kg
same,pIC50,Gamma-secretase [4],6.59
same,pIC50,Gamma-secretase [25],5.51
same,Vd,[48],3.1 L/kg
same,Drug uptake,Brain,Active
